Experimental data from patent US20210274787A1, “USE OF A DIFLUORO-(2-HYDROXYPROPYL)PYRIDINE COMPOUND AS A FUNGICIDE FOR CONTROL OF LEAF SPOT OF SUGAR BEETS” (Dow AgroSciences LLC, priority 2016, published 2021).

Test system: Cercospora beticola (CERCBE), leaf spot of sugar beet
Assay: Field assessment of Cercospora beticola (CERCBE) in sugar beets
Type: in vivo
Settings: for % Control CERCBE (based on AUDPC): sugar beet field, natural infection
Excerpt: Field Assessment of Cercospora beticola (CERCBE) in Sugar Beets:
A fungicidal treatment containing an EC formulation of compound I by itself and in combination with four adjuvants was sprayed on sugar beet plants (BEAVA, Corvina variety) six times during the course of 7 weeks ([…]) under natural infection with CERCBE. The commercial standard used in the study was difenoconazole (Score) and was applied at 100 g ai/ha. The treatment was part of an experimental trial designed as a randomized complete block with four replications and a plot of approximately 1×2 m. Compound I was applied at water volume of 400 L/ha, using a backpack precision plot sprayer (BKPCKAIR, EVEN FAN TEEJET TP 8004EVS Nozzle, 1 m boom width) and pressurized at 250 kPa.
Disease severity was recorded as a percentage of visual diseased foliage on whole plot. Cercospora leaf spot infection was assessed five times, 6 days after application A (DAAA); 6 DAAC; 12 DAAB; and 7 and 21 DAAF. The disease infection was recorded following EPPO PP 1/1 (4) guideline prescriptions. Area under the disease progress curve (AUDPC) was calculated for each plot using the sets of recorded severity data. Relative AUDPC (% control based on AUDPC) was calculated as percent of the nontreated control.

Row | SMILES | CERCBE control compared with difenoconazole (statistical) (100 g ai/ha in 0.15% Phase II, Ethomeen, Lutensol or Agnique BP-420, ANOVA and Tukey's test (p=0.10)) | level of control of CERCBE compared with difenoconazole (numerical) (100 g ai/ha in Agnique BP-420 (50% EC formulation at 0.3% v/v) or 0.15% Lutensol) | fungicidal effect on Cercospora beticola (leaf spot of sugar beet, general statement) | % Control CERCBE (based on AUDPC) (50 g ai/ha, adjuvant Agnique BP-420 (50% w/w at 0.3% v/v)) | % Control CERCBE (based on AUDPC) (50 g ai/ha, no adjuvant) | % Control CERCBE (based on AUDPC) (100 g ai/ha, adjuvant Agnique BP-420 (50% w/w at 0.3% v/v)) | % Control CERCBE (based on AUDPC) (100 g ai/ha, adjuvant Ethomeen T18H (0.15% v/v)) | % Control CERCBE (based on AUDPC) (100 g ai/ha, adjuvant Lutensol TDA 9 (0.15% v/v)) | % Control CERCBE (based on AUDPC) (100 g ai/ha, adjuvant Phase II (0.15% v/v)) | % Control CERCBE (based on AUDPC) (100 g ai/ha, no adjuvant) | % Control CERCBE (based on AUDPC) (150 g ai/ha, adjuvant Agnique BP-420 (50% w/w at 0.3% v/v)) | % Control CERCBE (based on AUDPC) (150 g ai/ha, no adjuvant) | % Control CERCBE (based on AUDPC) (100 g ai/ha, Score (commercial standard))
1 | N#Cc1ccc(Oc2ccc(C(F)(F)C(O)(Cn3nc[nH]c3=S)c3ccc(F)cc3F)nc2)cc1 (stereo not shown) [Compound I, 4-((6-(2-(2,4-difluorophenyl)-1,1-difluoro-2-hydroxy-3-(5-thioxo-4,5-dihydro-1H-1,2,4-triazol-1-yl)propyl)pyridin-3-yl)oxy)benzonitrile] | statistically equivalent to that of the commercial standard difenoconazole at 100 g ai/ha | numerically equivalent to that of difenoconazole at 100 g ai/ha | significant fungicidal effect | B (51-74) | B (51-74) | A (75-100) | B (51-74) | A (75-100) | B (51-74) | B (51-74) | A (75-100) | B (51-74) | –
2 | CC1COC(Cn2cncn2)(c2ccc(Oc3ccc(Cl)cc3)cc2Cl)O1 (stereo not shown) [Difenoconazole, difenoconazole, reference compound] | – | – | – | – | – | – | – | – | – | – | – | – | A (75-100)
